# According to PubChem BioAssay (NCI):
#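 Compound exposure: 48 hours, 5 concentrations, 96-well plates. TGI denotes the concentration required for complete inhibition of growth.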
# Legend:
# Assay in all cases: DTP human tumour cell line panel, 48 h
# SW-620 colon = test system: SW-620 colon
# M19-MEL melanoma = test system: M19-MEL melanoma
# SNB-19 CNS = test system: SNB-19 CNS
# SF-295 CNS = test system: SF-295 CNS
# HL-60(TB) leukemia = test system: HL-60(TB) leukemia
# CAKI-1 renal = test system: CAKI-1 renal
# UACC-62 melanoma = test system: UACC-62 melanoma
# OVCAR-8 ovarian = test system: OVCAR-8 ovarian
# RXF-631 renal = test system: RXF-631 renal
# EKVX NSCLC = test system: EKVX NSCLC
# HOP-18 NSCLC = test system: HOP-18 NSCLC
# CCRF-CEM leukemia = test system: CCRF-CEM leukemia
# SNB-75 CNS = test system: SNB-75 CNS
# SK-OV-3 ovarian = test system: SK-OV-3 ovarian
# ACHN renal = test system: ACHN renal
# NCI-H460 lung = test system: NCI-H460 lung
# XF 498 CNS = test system: XF 498 CNS
# UACC-257 melanoma = test system: UACC-257 melanoma
# NCI-H23 lung = test system: NCI-H23 lung
# HCT-15 colon = test system: HCT-15 colon
# DLD-1 colon = test system: DLD-1 colon
# UO-31 renal = test system: UO-31 renal
# TK-10 renal = test system: TK-10 renal
# OVCAR-3 ovarian = test system: OVCAR-3 ovarian
# A498 renal = test system: A498 renal
# KM20L2 colon = test system: KM20L2 colon
# SR leukemia = test system: SR leukemia
# SF-268 CNS = test system: SF-268 CNS
# NCI-H522 lung = test system: NCI-H522 lung
# MOLT-4 leukemia = test system: MOLT-4 leukemia
# K-562 leukemia = test system: K-562 leukemia
# U251 CNS = test system: U251 CNS
# SF-539 CNS = test system: SF-539 CNS
# SK-MEL-2 melanoma = test system: SK-MEL-2 melanoma
# OVCAR-5 ovarian = test system: OVCAR-5 ovarian
# IGROV1 ovarian = test system: IGROV1 ovarian
# SNB-78 CNS = test system: SNB-78 CNS
# KM12 colon = test system: KM12 colon
# M14 melanoma = test system: M14 melanoma
# DMS 114 small cell lung = test system: DMS 114 small cell lung
# SK-MEL-5 melanoma = test system: SK-MEL-5 melanoma
# NCI-H226 lung = test system: NCI-H226 lung
# HCC-2998 colon = test system: HCC-2998 colon
# HCT-116 colon = test system: HCT-116 colon
# LXFL 529 NSCLC = test system: LXFL 529 NSCLC
# HT29 colon = test system: HT29 colon
# RPMI-8226 leukemia = test system: RPMI-8226 leukemia
# 786-0 renal = test system: 786-0 renal
# HOP-62 NSCLC = test system: HOP-62 NSCLC
# SK-MEL-28 melanoma = test system: SK-MEL-28 melanoma
# A549 NSCLC = test system: A549 NSCLC
# LOX IMVI melanoma = test system: LOX IMVI melanoma
# HOP-92 NSCLC = test system: HOP-92 NSCLC
# SN12C renal = test system: SN12C renal
# DMS 273 small cell lung = test system: DMS 273 small cell lung
# OVCAR-4 ovarian = test system: OVCAR-4 ovarian
# MALME-3M melanoma = test system: MALME-3M melanoma
# COLO 205 colon = test system: COLO 205 colon
smiles,measurement,setting,value
Cc1csc2nc(-c3ccncc3)cn12,TGI,SW-620 colon,> 54.2 µM
same,TGI,M19-MEL melanoma,> 100 µM
same,TGI,SNB-19 CNS,> 100 µM
same,TGI,SF-295 CNS,> 100 µM
same,TGI,HL-60(TB) leukemia,> 52.4 µM
same,TGI,CAKI-1 renal,> 100 µM
same,TGI,UACC-62 melanoma,> 100 µM
same,TGI,OVCAR-8 ovarian,> 100 µM
same,TGI,RXF-631 renal,> 100 µM
same,TGI,EKVX NSCLC,> 100 µM
same,TGI,HOP-18 NSCLC,> 100 µM
same,TGI,CCRF-CEM leukemia,> 61 µM
same,TGI,SNB-75 CNS,> 100 µM
same,TGI,SK-OV-3 ovarian,> 100 µM
same,TGI,ACHN renal,> 100 µM
same,TGI,NCI-H460 lung,> 61.4 µM
same,TGI,XF 498 CNS,> 100 µM
same,TGI,UACC-257 melanoma,> 100 µM
same,TGI,NCI-H23 lung,> 100 µM
same,TGI,HCT-15 colon,> 56.7 µM
same,TGI,DLD-1 colon,> 100 µM
same,TGI,UO-31 renal,> 100 µM
same,TGI,TK-10 renal,> 100 µM
same,TGI,OVCAR-3 ovarian,> 100 µM
same,TGI,A498 renal,> 100 µM
same,TGI,KM20L2 colon,> 100 µM
same,TGI,SR leukemia,51 µM
same,TGI,SF-268 CNS,> 100 µM
same,TGI,NCI-H522 lung,> 100 µM
same,TGI,MOLT-4 leukemia,> 100 µM
same,TGI,K-562 leukemia,> 65.4 µM
same,TGI,U251 CNS,> 72.6 µM
same,TGI,SF-539 CNS,> 65.9 µM
same,TGI,SK-MEL-2 melanoma,> 100 µM
same,TGI,OVCAR-5 ovarian,> 100 µM
same,TGI,IGROV1 ovarian,> 100 µM
same,TGI,SNB-78 CNS,> 100 µM
same,TGI,KM12 colon,> 100 µM
same,TGI,M14 melanoma,> 100 µM
same,TGI,DMS 114 small cell lung,> 60.9 µM
same,TGI,SK-MEL-5 melanoma,> 100 µM
same,TGI,NCI-H226 lung,> 100 µM
same,TGI,HCC-2998 colon,> 100 µM
same,TGI,HCT-116 colon,> 59.3 µM
same,TGI,LXFL 529 NSCLC,> 76.5 µM
same,TGI,HT29 colon,> 100 µM
same,TGI,RPMI-8226 leukemia,> 64.1 µM
same,TGI,786-0 renal,34.5 µM
same,TGI,HOP-62 NSCLC,> 100 µM
same,TGI,SK-MEL-28 melanoma,> 100 µM
same,TGI,A549 NSCLC,> 100 µM
same,TGI,LOX IMVI melanoma,> 61.5 µM
same,TGI,HOP-92 NSCLC,> 100 µM
same,TGI,SN12C renal,> 100 µM
same,TGI,DMS 273 small cell lung,41 µM
same,TGI,OVCAR-4 ovarian,> 100 µM
same,TGI,MALME-3M melanoma,> 100 µM
same,TGI,COLO 205 colon,> 79.7 µM
